In patent US5298511A, “Alkanoic acid derivatives” (Imperial Chemical Industries PLC, priority 1991, dated 1994):
pIC50: −log10 of the molar value.

Target: T1, 5-LO (Homo sapiens, UniProt P09917)
T1 construct: incubating a test compound with heparinised human blood, prior to challenge with the calcium ionophore A23187; endogenous in cells; host or cells: blood cells in heparinised human whole blood, challenged with A23187
T1 sequence (P09917 1-674): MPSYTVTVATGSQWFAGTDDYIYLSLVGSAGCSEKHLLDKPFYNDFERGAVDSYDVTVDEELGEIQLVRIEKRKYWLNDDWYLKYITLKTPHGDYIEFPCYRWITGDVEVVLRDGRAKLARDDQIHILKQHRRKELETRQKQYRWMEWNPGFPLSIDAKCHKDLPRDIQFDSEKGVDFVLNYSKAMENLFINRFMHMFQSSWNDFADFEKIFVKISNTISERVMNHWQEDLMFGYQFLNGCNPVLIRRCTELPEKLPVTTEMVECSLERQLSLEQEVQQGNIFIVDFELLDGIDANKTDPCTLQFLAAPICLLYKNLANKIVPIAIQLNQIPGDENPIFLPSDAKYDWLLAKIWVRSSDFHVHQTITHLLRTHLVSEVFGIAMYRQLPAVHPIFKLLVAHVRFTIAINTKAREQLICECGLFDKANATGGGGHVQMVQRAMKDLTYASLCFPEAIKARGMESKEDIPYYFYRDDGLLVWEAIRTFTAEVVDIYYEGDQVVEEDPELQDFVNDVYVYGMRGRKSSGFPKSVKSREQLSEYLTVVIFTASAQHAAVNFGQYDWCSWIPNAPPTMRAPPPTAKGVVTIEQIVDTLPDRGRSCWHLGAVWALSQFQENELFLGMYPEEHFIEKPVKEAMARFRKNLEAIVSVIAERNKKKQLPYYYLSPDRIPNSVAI
Assay: test a) in vitro heparinised human blood challenged with calcium ionophore A23187; LTB4 by radioimmunoassay
Assay type: cell-based
Procedure: a) An in vitro assay system involving incubating a test compound with heparinised human blood, prior to challenge with the calcium ionophore A23187 and then indirectly measuring the inhibitory effects on 5-LO by assaying the amount of LTB4 using specific radioimmunoassays described by Carey and Forder (F. Carey and R. A. Forder, Prostaglandins, Leukotrienes Med., 1986, 22, 57; Prostaglandins, 1984, 28, 666; Brit. J. Pharmacol. 1985, 84, 34 P) which involve the use of a protein-LTB4 conjugate produced using the procedure of Young et alia (Prostaglandins, 1983, 26(4), 605-613). The effects of a test compound on the enzyme cyclooxygenase (which is involved in the alternative metabolic pathway for arachidonic acid and gives rise to prostaglandins, thromboxanes and related metabolites) may be measured at the same time using the specific radioimmunoassay for thromboxane B2 (TxB2) described by Carey and Forder (see above). This test provides an indication of the effects of a test compound against 5-LO and also cyclooxygenase in the presence of blood cells and proteins. It permits the selectivity of the inhibitory effect on 5-LO or cyclooxygenase to be assessed.

- pIC50: 6.70
Compound: CCOC(=O)C(CC)(CC)c1cccc(OCc2ccc3ccccc3c2)c1 [Example 1, ethyl 2-ethyl-2-[3-(naphth-2-ylmethoxy)phenyl]butyrate]
